One experiment deals with T1, huMR (Homo sapiens, UniProt P08235).
T1 sequence (P08235 1-984): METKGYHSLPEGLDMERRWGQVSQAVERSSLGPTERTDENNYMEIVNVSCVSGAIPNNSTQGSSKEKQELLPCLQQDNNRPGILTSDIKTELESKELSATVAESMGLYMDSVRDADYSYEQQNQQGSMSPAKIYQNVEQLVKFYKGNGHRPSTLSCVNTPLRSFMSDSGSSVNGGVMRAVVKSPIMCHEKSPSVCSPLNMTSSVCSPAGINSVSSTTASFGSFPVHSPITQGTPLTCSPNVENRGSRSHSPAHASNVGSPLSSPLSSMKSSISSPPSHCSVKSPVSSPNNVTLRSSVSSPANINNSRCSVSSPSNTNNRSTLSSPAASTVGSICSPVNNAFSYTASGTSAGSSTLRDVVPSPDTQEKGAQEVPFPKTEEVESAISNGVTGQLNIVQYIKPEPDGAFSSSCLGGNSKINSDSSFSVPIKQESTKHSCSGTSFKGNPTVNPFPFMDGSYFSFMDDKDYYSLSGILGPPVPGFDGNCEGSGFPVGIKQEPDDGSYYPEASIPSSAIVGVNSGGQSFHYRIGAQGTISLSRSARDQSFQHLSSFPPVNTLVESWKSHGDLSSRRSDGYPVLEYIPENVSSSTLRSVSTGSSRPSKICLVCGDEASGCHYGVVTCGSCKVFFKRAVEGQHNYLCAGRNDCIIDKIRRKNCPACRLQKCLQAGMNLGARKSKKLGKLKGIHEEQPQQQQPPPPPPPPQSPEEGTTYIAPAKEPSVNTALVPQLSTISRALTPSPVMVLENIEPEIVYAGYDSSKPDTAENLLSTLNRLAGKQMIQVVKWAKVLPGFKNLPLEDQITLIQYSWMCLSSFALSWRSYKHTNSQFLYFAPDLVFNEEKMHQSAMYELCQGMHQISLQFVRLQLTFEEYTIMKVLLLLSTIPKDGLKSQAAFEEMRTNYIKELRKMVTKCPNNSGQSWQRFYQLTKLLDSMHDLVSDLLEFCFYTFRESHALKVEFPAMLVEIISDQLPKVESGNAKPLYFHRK
Description: Competition binding assay on cells, human MR. Conditions: displacing 3H-aldosterone on cells. The protocol:
(§1) The KD for subfamily 3 group C nuclear hormone receptors was determined on cells by displacing ^3H-steroidal agonists for the respective receptor.
(§2) The cold ligands and ^3H-steroids were co-incubated on cells in PBS at room temperature for one hour. Following incubation, the cells were washed twice with ice cold PBS and the unbound activity was retained for analysis. The cells were lysed with 1 mL of 1 M NaOH and collected. Bound and unbound fractions were counted in a liquid scintillation counter and expressed as a percentage of the total activity added per equal relative number of cells. […] The specific binding component was plotted against the log of the competing ligand and curve fit using a non-linear regression algorithm with PRISM software.

The target in a further experiment is huAR (Homo sapiens, UniProt P10275). Put plainly: Competition binding assay on cells, human AR. How it is done:
The KD for subfamily 3 group C nuclear hormone receptors was determined on cells by displacing ^3H-steroidal agonists for the respective receptor. […].
The cold ligands and ^3H-steroids were co-incubated on cells in PBS at room temperature for one hour. Following incubation, the cells were washed twice with ice cold PBS and the unbound activity was retained for analysis. The cells were lysed with 1 mL of 1 M NaOH and collected. Bound and unbound fractions were counted in a liquid scintillation counter and expressed as a percentage of the total activity added per equal relative number of cells. […]. The specific binding component was plotted against the log of the competing ligand and curve fit using a non-linear regression algorithm with PRISM software.

In a further experiment the target is T2, huPR (Homo sapiens, UniProt P06401).
T2 construct: DU145 (GR), LNCaP-AR (AR), MCF7 (PR, ER), GL261 (mouse GR), and 9L (rat GR); endogenous in cells; host or cells: MCF7
T2 sequence (P06401 1-933): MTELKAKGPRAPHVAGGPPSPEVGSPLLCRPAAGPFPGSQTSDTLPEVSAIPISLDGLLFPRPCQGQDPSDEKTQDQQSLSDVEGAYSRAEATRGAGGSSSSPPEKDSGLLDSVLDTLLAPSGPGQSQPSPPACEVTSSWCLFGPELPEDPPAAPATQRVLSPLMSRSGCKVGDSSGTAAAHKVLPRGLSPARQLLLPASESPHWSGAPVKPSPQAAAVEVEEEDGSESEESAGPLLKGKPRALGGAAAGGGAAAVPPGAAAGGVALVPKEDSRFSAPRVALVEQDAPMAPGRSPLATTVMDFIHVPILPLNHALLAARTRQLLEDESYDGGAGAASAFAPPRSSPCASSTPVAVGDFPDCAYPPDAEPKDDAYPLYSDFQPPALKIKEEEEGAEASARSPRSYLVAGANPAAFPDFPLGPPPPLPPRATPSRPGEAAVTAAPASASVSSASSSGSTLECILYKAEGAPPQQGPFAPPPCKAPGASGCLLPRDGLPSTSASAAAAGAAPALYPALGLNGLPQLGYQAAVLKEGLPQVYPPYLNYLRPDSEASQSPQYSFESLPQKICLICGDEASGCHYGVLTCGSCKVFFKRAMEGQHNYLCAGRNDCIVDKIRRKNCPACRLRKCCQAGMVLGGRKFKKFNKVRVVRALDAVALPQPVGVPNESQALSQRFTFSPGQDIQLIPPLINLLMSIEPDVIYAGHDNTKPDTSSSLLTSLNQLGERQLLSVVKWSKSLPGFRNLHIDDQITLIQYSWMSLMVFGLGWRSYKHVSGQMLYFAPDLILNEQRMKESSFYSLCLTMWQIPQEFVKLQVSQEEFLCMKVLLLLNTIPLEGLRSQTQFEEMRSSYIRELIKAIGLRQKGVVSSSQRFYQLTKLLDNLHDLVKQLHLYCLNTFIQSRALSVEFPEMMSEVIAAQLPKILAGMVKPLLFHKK
Put plainly: Competition binding assay on cells, human PR. Conditions: MCF7 cells, displacing 3H-progesterone. The protocol: as §1, §2

Chain of huAR (P10275 whole entry): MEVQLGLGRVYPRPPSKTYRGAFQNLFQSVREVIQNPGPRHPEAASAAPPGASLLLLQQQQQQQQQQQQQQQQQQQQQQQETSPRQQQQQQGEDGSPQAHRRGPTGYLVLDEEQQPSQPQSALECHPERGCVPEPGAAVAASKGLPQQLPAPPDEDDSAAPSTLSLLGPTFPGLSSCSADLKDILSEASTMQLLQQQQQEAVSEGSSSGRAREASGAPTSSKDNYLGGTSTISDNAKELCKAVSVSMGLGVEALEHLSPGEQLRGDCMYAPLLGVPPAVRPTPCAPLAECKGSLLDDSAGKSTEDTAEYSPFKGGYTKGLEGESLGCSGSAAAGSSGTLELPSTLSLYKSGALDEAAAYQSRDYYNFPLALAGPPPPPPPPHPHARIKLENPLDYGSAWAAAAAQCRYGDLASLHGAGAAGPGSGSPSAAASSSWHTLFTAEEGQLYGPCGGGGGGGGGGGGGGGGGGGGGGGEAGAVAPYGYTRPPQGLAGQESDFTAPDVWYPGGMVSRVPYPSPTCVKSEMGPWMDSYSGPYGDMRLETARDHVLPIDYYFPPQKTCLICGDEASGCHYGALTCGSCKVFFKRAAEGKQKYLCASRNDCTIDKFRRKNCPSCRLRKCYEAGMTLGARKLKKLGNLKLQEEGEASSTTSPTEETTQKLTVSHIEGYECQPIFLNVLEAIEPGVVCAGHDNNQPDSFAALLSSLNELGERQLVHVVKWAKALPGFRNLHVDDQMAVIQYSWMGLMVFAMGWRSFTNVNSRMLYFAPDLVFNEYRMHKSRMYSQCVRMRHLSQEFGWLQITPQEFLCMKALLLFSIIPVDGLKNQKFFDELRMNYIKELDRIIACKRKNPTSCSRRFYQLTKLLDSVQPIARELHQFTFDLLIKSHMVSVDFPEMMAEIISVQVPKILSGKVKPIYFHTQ

On to `C[C@]12C=CC(=O)C=C1CCC1C2[C@@H](O)C[C@@]2(C)C1CC[C@]2(O)C(=O)COCCCF` (stereo partly drawn) [GR01], for which the values for the Kd on huMR, at huAR and on huPR were 212 nM, 1460 nM and 1060 nM, respectively.
Take `C[C@]12C=CC(=O)C=C1CCC1C2[C@@H](O)C[C@@]2(C)C1CC[C@]2(O)C(=O)CNC(=O)c1ccc(F)cc1` (stereo partly drawn) [GR02]: the Kd (as a rule, the concentration at which binding is half-saturated) stood at 4030 nM on huMR, 1260 nM at huAR and 242 nM on huPR.

The values above are taken from publication PMC5945515, “Measuring glucocorticoid receptor expression in vivo with PET” (Oncotarget, 2018).
